Test results published in patent US20240391965A1, “STAPLED ANTIMICROBIAL PEPTIDES (STAMPS) AND USES THEREOF” (Lytica Therapeutics, Inc., priority 2021, published 2024).
Converted amounts (≈) assume the structure as drawn. Starred links: 1 amine or outer side, 2 acyl side, 3 side chain; linkers in the order of their positions; H or OH if unused. Positions of bridges follow the written chain, without caps; N, C: chain ends. Residues, ends and D or L forms follow the SMILES beside them. Biphenyl(4,4'-CH2)2 = c1cc(-c2ccc(C[*:2])cc2)ccc1C[*:1]; mXylylene = c1cc(C[*:1])cc(C[*:2])c1; pXylylene = c1cc(C[*:2])ccc1C[*:1]; X1 = C(=CC[*:2])C[*:1]

What was measured:
[1] = 90 minute cytotoxicity assay (LDH release), renal toxicity; assay type: cell-based
Text: (§1) In some embodiments, a peptide provided herein has renal toxicity that is at least 10% (e.g., at least 15%, at least 20%, at least 25%, at least 30%, at least 35%, at least 40%, at least 45%, at least 50%, at least 55%, at least 60%, at least 65%, at least 65%, at least 70%, at least 75%, at least 80%, at least 85%, at least 90%, at least 95%, at least 99%) lower than the renal toxicity of the reference. The renal toxicity of a peptide can be measured in vitro using a renal proximal tubule epithelial cell (RPTEC) renal toxicity assay.
(§2) Cell culture: RPTEC were maintained in MEM media supplemented with growth factors. HEPG2 cell line was maintained in Eagle's Minimum Essential Medium (EMEM) supplemented with fetal bovine serum to a final concentration of 10%.
90 minute cytotoxicity assay: Cells were plated in a 96-well format, and after overnight incubation, media was replaced with fresh media. Serial dilutions of StAMPs from a 5 mg/mL water stock, or vehicle, were added to the cells in a final volume of 100 μl. After incubating at 37° C. for 90 min, 50 μl of cell culture media was transferred to a clear 96-well plate, incubated with 50 μl of lactate dehydrogenase (LDH) assay reagent for 10 min, and absorbance measured at 490 nm on a microplate reader.
(§3) Renal toxicity was measured after 90 minutes of incubation, while liver toxicity was measured after 48 hours of incubation with StAMPs. N/A=not tested.

[2] = 48 hours cytotoxicity assay (CellTiter-Glo), liver toxicity; assay type: cell-based, human
Text: as §1, with “hepatic” for “renal”, “human liver cells (e.g., HepG2)” for “renal proximal tubule epithelial cell (RPTEC) renal”
as §2
48 hours cytotoxicity assay: Cells were plated in a 96-well format, and after 4 hour incubation to allow attachment, serial dilutions of StAMPs from a 5 mg/mL water stock, or vehicle, were then added to the cells in a final volume of 100 μl. After incubating at 37° C. for 48 hours, 100 μl of CellTiter-Glo® reagent was added to the cells, and the plates were incubated 10 minutes at room temperature. Luminescence was then measured on a microplate reader.
as §3

Row | Structure (SMILES) | IC50 [1] | IC50 [2] | IC50 ([1]; 90 minutes of incubation, LDH release, read-out: Inhibitory Concentration at 50% Cytotoxicity (IC50) Human Renal Proximal Tubule Epithelial Cells (RPTEC))
1 | CC[C@H](C)[C@H](NC(=O)CN)C(=O)N[C@@H](Cc1ccccc1)C(=O)N[C@@H](CO)C(=O)N[C@@H](CCCCN)C(=O)N[C@@H](CC(C)C)C(=O)N[C@H]1CSCC=CCSC[C@@H](C(=O)N[C@@H](CCCCN)C(=O)N[C@@H](CC(N)=O)C(=O)N[C@@H](CC(C)C)C(=O)N[C@@H](CC(C)C)C(=O)N[C@H](C(=O)N[C@@H](CO)C(=O)NCC(=O)N[C@@H](CC(C)C)C(=O)N[C@@H](CCCCN)C(=O)NCC(N)=O)[C@@H](C)CC)NC(=O)[C@H](CCCCN)NC(=O)[C@H](CCCCN)NC(=O)CNC1=O [compound 4] (H-GIFSKLCGKKCKNLLISGLKG-NH2; linker 7-11 via X1; N-terminus assumed) | ~200 µg/mL (≈ 88.5 µM) | 98 µg/mL (≈ 43.4 µM) | –
2 | CC[C@H](C)[C@H](NC(=O)CN)C(=O)N[C@@H](Cc1ccccc1)C(=O)N[C@H]1CSCc2cccc(c2)CSC[C@@H](C(=O)N[C@@H](CCCCN)C(=O)N[C@@H](CCCCN)C(=O)N[C@H](C(=O)N[C@@H](CCCCN)C(=O)N[C@@H](CC(N)=O)C(=O)N[C@@H](CC(C)C)C(=O)N[C@@H](CC(C)C)C(=O)N[C@H](C(=O)N[C@@H](CO)C(=O)NCC(=O)N[C@@H](CC(C)C)C(=O)N[C@@H](CCCCN)C(=O)NCC(N)=O)[C@@H](C)CC)[C@@H](C)CC)NC(=O)[C@H](C)NC(=O)[C@H](CC(C)C)NC(=O)[C@H](CCCCN)NC1=O [compound 5] (H-GIFCKLACKKIKNLLISGLKG-NH2; linker 4-8 via mXylylene; N-terminus assumed) | 14 µg/mL (≈ 5.96 µM) | 23 µg/mL (≈ 9.79 µM) | –
3 | CC[C@H](C)[C@H](NC(=O)CN)C(=O)N[C@@H](Cc1ccccc1)C(=O)N[C@H]1CSCc2ccc(cc2)CSC[C@@H](C(=O)N[C@@H](CCCCN)C(=O)N[C@@H](CCCCN)C(=O)N[C@H](C(=O)N[C@@H](CCCCN)C(=O)N[C@@H](CC(N)=O)C(=O)N[C@@H](CC(C)C)C(=O)N[C@@H](CC(C)C)C(=O)N[C@H](C(=O)N[C@@H](CO)C(=O)NCC(=O)N[C@@H](CC(C)C)C(=O)N[C@@H](CCCCN)C(=O)NCC(N)=O)[C@@H](C)CC)[C@@H](C)CC)NC(=O)[C@H](C)NC(=O)[C@H](CC(C)C)NC(=O)[C@H](CCCCN)NC1=O [compound 6] (H-GIFCKLACKKIKNLLISGLKG-NH2; linker 4-8 via pXylylene; N-terminus assumed) | 15 µg/mL (≈ 6.39 µM) | 25 µg/mL (≈ 10.6 µM) | –
4 | CC[C@H](C)[C@H](NC(=O)CN)C(=O)N[C@@H](Cc1ccccc1)C(=O)N[C@H]1CSCC=CCSC[C@@H](C(=O)N[C@@H](CCCCN)C(=O)N[C@@H](CCCCN)C(=O)N[C@H](C(=O)N[C@@H](CCCCN)C(=O)N[C@@H](CC(N)=O)C(=O)N[C@@H](CC(C)C)C(=O)N[C@@H](CC(C)C)C(=O)N[C@H](C(=O)N[C@@H](CO)C(=O)NCC(=O)N[C@@H](CC(C)C)C(=O)N[C@@H](CCCCN)C(=O)NCC(N)=O)[C@@H](C)CC)[C@@H](C)CC)NC(=O)[C@H](C)NC(=O)[C@H](CC(C)C)NC(=O)[C@H](CCCCN)NC1=O [compound 7] (H-GIFCKLACKKIKNLLISGLKG-NH2; linker 4-8 via X1; N-terminus assumed) | 62 µg/mL (≈ 27 µM) | 51 µg/mL (≈ 22.2 µM) | –
5 | CC[C@H](C)[C@H](NC(=O)CN)C(=O)N[C@@H](Cc1ccccc1)C(=O)N[C@@H](CO)C(=O)N[C@@H](CCCCN)C(=O)N[C@H]1CSCc2ccc(cc2)CSC[C@@H](C(=O)N[C@H](C(=O)N[C@@H](CCCCN)C(=O)N[C@@H](CC(N)=O)C(=O)N[C@@H](CC(C)C)C(=O)N[C@@H](CC(C)C)C(=O)N[C@H](C(=O)N[C@@H](CO)C(=O)NCC(=O)N[C@@H](CC(C)C)C(=O)N[C@@H](CCCCN)C(=O)NCC(N)=O)[C@@H](C)CC)[C@@H](C)CC)NC(=O)[C@H](CCCCN)NC(=O)CNC(=O)[C@H](C)NC1=O [compound 8] (H-GIFSKCAGKCIKNLLISGLKG-NH2; linker 6-10 via pXylylene; N-terminus assumed) | 119 µg/mL (≈ 52.8 µM) | 15 µg/mL (≈ 6.66 µM) | –
6 | CC[C@H](C)[C@H](NC(=O)CN)C(=O)N[C@@H](Cc1ccccc1)C(=O)N[C@@H](CO)C(=O)N[C@@H](CCCCN)C(=O)N[C@H]1CSCC=CCSC[C@@H](C(=O)N[C@H](C(=O)N[C@@H](CCCCN)C(=O)N[C@@H](CC(N)=O)C(=O)N[C@@H](CC(C)C)C(=O)N[C@@H](CC(C)C)C(=O)N[C@H](C(=O)N[C@@H](CO)C(=O)NCC(=O)N[C@@H](CC(C)C)C(=O)N[C@@H](CCCCN)C(=O)NCC(N)=O)[C@@H](C)CC)[C@@H](C)CC)NC(=O)[C@H](CCCCN)NC(=O)CNC(=O)[C@H](C)NC1=O [compound 9] (H-GIFSKCAGKCIKNLLISGLKG-NH2; linker 6-10 via X1; N-terminus assumed) | > 200 µg/mL | 39 µg/mL (≈ 17.7 µM) | –
7 | CC[C@H](C)[C@H](NC(=O)CN)C(=O)N[C@@H](Cc1ccccc1)C(=O)N[C@@H](CO)C(=O)N[C@@H](CCCCN)C(=O)N[C@@H](CC(C)C)C(=O)N[C@@H](C)C(=O)NCC(=O)N[C@@H](CCCCN)C(=O)N[C@H]1CSCc2ccc(cc2)-c2ccc(cc2)CSC[C@@H](C(=O)NCC(=O)N[C@@H](CC(C)C)C(=O)N[C@@H](CCCCN)C(=O)NCC(N)=O)NC(=O)[C@H]([C@@H](C)CC)NC(=O)[C@H](CC(C)C)NC(=O)[C@H](CC(C)C)NC(=O)[C@H](CC(N)=O)NC(=O)[C@H](CCCCN)NC(=O)[C@H]([C@@H](C)CC)NC1=O [compound 74] (H-GIFSKLAGKCIKNLLICGLKG-NH2; linker 10-17 via Biphenyl(4,4'-CH2)2; N-terminus assumed) | 4 µg/mL (≈ 1.7 µM) | – | –
8 | CC[C@H](C)[C@H](NC(=O)CN)C(=O)N[C@@H](Cc1ccccc1)C(=O)N[C@@H](CO)C(=O)N[C@@H](CCCCN)C(=O)N[C@@H](CC(C)C)C(=O)N[C@@H](C)C(=O)NCC(=O)N[C@@H](CCCCN)C(=O)N[C@@H](CCCCN)C(=O)N[C@H](C(=O)N[C@H]1CSCc2ccc(cc2)-c2ccc(cc2)CSC[C@@H](C(=O)N[C@@H](CCCCN)C(=O)NCC(N)=O)NC(=O)CNC(=O)[C@H](CO)NC(=O)[C@H]([C@@H](C)CC)NC(=O)[C@H](CC(C)C)NC(=O)[C@H](CC(C)C)NC(=O)[C@H](CC(N)=O)NC1=O)[C@@H](C)CC [compound 79] (H-GIFSKLAGKKICNLLISGCKG-NH2; linker 12-19 via Biphenyl(4,4'-CH2)2; N-terminus assumed) | – | 50 µg/mL (≈ 21.5 µM) | –
9 | CC[C@H](C)[C@H](NC(=O)CN)C(=O)N[C@@H](Cc1ccccc1)C(=O)N[C@@H](CO)C(=O)N[C@@H](CCCCN)C(=O)N[C@@H](CC(C)C)C(=O)N[C@@H](C)C(=O)NCC(=O)N[C@@H](CCCCN)C(=O)N[C@@H](CCCCN)C(=O)N[C@H](C(=O)N[C@@H](CCCCN)C(=O)N[C@@H](CC(N)=O)C(=O)N[C@H]1CSCc2ccc(cc2)-c2ccc(cc2)CSC[C@@H](C(N)=O)NC(=O)[C@H](CCCCN)NC(=O)[C@H](CC(C)C)NC(=O)CNC(=O)[C@H](CO)NC(=O)[C@H]([C@@H](C)CC)NC(=O)[C@H](CC(C)C)NC1=O)[C@@H](C)CC [compound 86] (H-GIFSKLAGKKIKNCLISGLKC-NH2; linker 14-21 via Biphenyl(4,4'-CH2)2; N-terminus assumed) | – | 9 µg/mL (≈ 3.75 µM) | –
10 | CC[C@H](C)[C@H](NC(=O)CN)C(=O)N[C@@H](Cc1ccccc1)C(=O)N[C@@H](CO)C(=O)N[C@@H](CCCCN)C(=O)N[C@@H](CC(C)C)C(=O)N[C@H]1CSCc2ccc(cc2)CSC[C@@H](C(=O)N[C@@H](CCCCN)C(=O)N[C@@H](CC(N)=O)C(=O)N[C@@H](CC(C)C)C(=O)N[C@@H](CC(C)C)C(=O)N[C@H](C(=O)N[C@H]2CSCc3ccc(cc3)CSC[C@@H](C(N)=O)NC(=O)[C@H](CCCCN)NC(=O)[C@H](CC(C)C)NC(=O)CNC2=O)[C@@H](C)CC)NC(=O)[C@H](CCCCN)NC(=O)[C@H](CCCCN)NC(=O)CNC1=O [compound 90] (H-GIFSKLCGKKCKNLLICGLKC-NH2; linker 7-11, 17-21 via pXylylene; N-terminus assumed) | – | – | > 200 µg/mL
11 | CC[C@H](C)[C@H](NC(=O)CN)C(=O)N[C@@H](Cc1ccccc1)C(=O)N[C@@H](CO)C(=O)N[C@@H](CCCCN)C(=O)N[C@@H](CC(C)C)C(=O)N[C@H]1CSCc2cccc(c2)CSC[C@@H](C(=O)N[C@@H](CCCCN)C(=O)N[C@@H](CC(N)=O)C(=O)N[C@@H](CC(C)C)C(=O)N[C@@H](CC(C)C)C(=O)N[C@H](C(=O)N[C@@H](CO)C(=O)NCC(=O)N[C@@H](CC(C)C)C(=O)N[C@@H](CCCCN)C(=O)NCC(=O)O)[C@@H](C)CC)NC(=O)[C@H](CCCCN)NC(=O)[C@H](CCCCN)NC(=O)CNC1=O [compound 91] (H-GIFSKLCGKKCKNLLISGLKG-OH; linker 7-11 via mXylylene; N-terminus assumed) | > 200 µg/mL | – | –
